# In US20210253643A1, “HYDROPHOBIC BIOMOLECULE STABILIZING SCAFFOLD PEPTIDES AND METHODS OF MAKING AND USING SAME” (The University of British Columbia, priority 2018, published 2021):
# No end group written: not given here.
# Key:
# [1] = target: T1, photosynthetic bacterial reaction center (BRC) (Cereibacter sphaeroides, UniProt P0C0Y7+P0C0Y8+P0C0Y9); experiment: Thermostability of the BRC complex (absorbance at 803 nm after incubation at 65° C.); format: physicochemical, Rhodobacter sphaeroides; conditions: 0.03% LDAO
# T1 construct: placed on H from own knowledge of pIND4-RC1; made in house; host or cells: Rhodobacter sphaeroides RcX (ΔpuhA, ΔpufQBALMX, ΔrshI, ΔppsR), plasmid pIND4-RC1
# Experimental: Reconstitution of the BRC in peptidiscs, low lipid nanodiscs, and styrene maleic acid nanoparticles: The purified BRC complex (1 mg/mL) was mixed at a 1:1.8 (μg/μg) ratio with NSPr followed by 10-fold dilution in Buffer A to decrease the LDAO concentration to 0.003%. For formation of low-lipid nanodiscs, the purified BRC complex was instead mixed at a 1:2 (mol/mol) ratio with MSP1D1 before dilution. Alternatively, an equivalent amount of BRC was diluted in Buffer A supplemented with 0.03% LDAO, 0.02% DDM, 0.1% SMA or 0.1% SDS as described. After incubation for 10 minutes on ice, aggregated proteins were removed by centrifugation (13,000×g, 10 min at 4° C.). […]
# Absorbance spectroscopy: Absorption spectra were recorded using a Hitachi U-3010 spectrophotometer. A blank measurement was recorded in Buffer A(+0.03% LDAO for detergent purified BRC). Samples were incubated in a PCR thermocycler at the indicated temperature, and then measured at the desired time points in a quartz cuvette at room temperature. […]
# The photosynthetic bacterial reaction center (BRC) from Rhodobacter sphaeroides was reconstituted into peptidiscs using NSPr. FIG. 21A illustrates the absorbance scans of the BRC (1 μM) in detergent solution (0.03% LDAO (lauryldimethylamine oxide)) and in peptidisc. Scans were normalized to the value measured at 803 nm (the absorbance peak of the accessory bacteriochlorophylls). […]
# [2] = Peptide solubility by turbidity of peptide suspensions at 550 nm; conditions: for Solubility (/5): Experiment #2, score 1 to 5; for Solubility: Experiment #1, score 1 to 5, turbidity at 550 nm
# Experimental: The solubility of the peptides was determined by measuring the turbidity of each of the peptide suspensions at 550 nm. The numbers 1 to 5 were used denote the degree of solubility, where 1 means poor solubility and 5 means high solubility.
# membrane proteins = experiment: Competition with equimolar NSPr-FAM during on-gel reconstitution of membrane proteins; format: biochemical; conditions: 0 no competition, 100 full competition
# Experimental: (§1) Table 10 summarizes the biophysical, structural and experimental characteristics of the tested NSP peptide variants. […] The number of inter-helix salt bridges formed between the AH1 and AH2 regions for each of the tested amphipathic peptide variants was also determined.
# [3] = tested on: membrane proteins MsbA and FhuA; experiment: On-gel reconstitution efficiency of membrane proteins; format: biochemical, E. coli; set-up: key: 1 means poor reconstitution; 5 means efficient reconstitution
# Experimental: Bands were visualized by Coomassie Blue G250 staining.
# as §1
# [4] = Experiment #1, score 1 to 5, on-gel, MsbA and FhuA
Compound,Solubility (/5) [2],also measured
"CCCCCCCCCCCC[N+](C)(C)[O-] [LDAO, lauryldimethylamine oxide]",–,Time to full denaturation of BRC [1]: less than 4 minutes
"CC(C)C[C@H](NC(=O)[C@H](CCCCN)NC(=O)[C@H](C)NC(=O)[C@H](Cc1ccccc1)NC(=O)[C@H](Cc1ccc(O)cc1)NC(=O)[C@H](CC(=O)O)NC(=O)[C@H](CCCCN)NC(=O)[C@@H](NC(=O)[C@H](C)NC(=O)[C@H](CCC(=O)O)NC(=O)[C@H](CCCCN)NC(=O)[C@H](CC(C)C)NC(=O)[C@H](CCCCN)NC(=O)[C@H](CCC(=O)O)NC(=O)[C@H](C)NC(=O)[C@H](C)NC(=O)[C@@H]1CCCN1C(=O)[C@H](CC(=O)O)NC(=O)[C@H](Cc1c[nH]c2ccccc12)NC(=O)[C@H](Cc1ccccc1)NC(=O)[C@H](CCCCN)NC(=O)[C@H](C)NC(=O)[C@H](Cc1ccccc1)NC(=O)[C@H](Cc1ccc(O)cc1)NC(=O)[C@H](CC(=O)O)NC(=O)[C@H](CCCCN)NC(=O)[C@@H](NC(=O)[C@H](C)NC(=O)[C@H](CCC(=O)O)NC(=O)[C@H](CCCCN)NC(=O)[C@H](Cc1ccccc1)NC(=O)[C@H](CCCCN)NC(=O)[C@H](CCC(=O)O)NC(=O)[C@H](C)NC(=O)[C@H](Cc1ccccc1)NC(=O)[C@H](Cc1c[nH]cn1)NC(=O)[C@H](Cc1c[nH]cn1)NC(=O)[C@H](Cc1c[nH]cn1)NC(=O)[C@H](Cc1c[nH]cn1)NC(=O)[C@H](Cc1c[nH]cn1)NC(=O)[C@@H](N)Cc1c[nH]cn1)C(C)C)C(C)C)C(=O)N[C@@H](Cc1c[nH]c2ccccc12)C(=O)N[C@@H](CC(=O)O)C(=O)O [NSPr-6xHis, HHHHHH FAEKFKEAVKDYFAKFWD P AAEKLKEAVKDYFAKLWD]",3 /5,–
"Ac-DWLKAFYDKVAEKLKEAAPDWFKAFYDKVAEKFKEAF-NH2 [Ac-NSP-NH2, Ac-DWLKAFYDKVAEKLKEAA P DWFKAFYDKVAEKFKEAF-NH2]",1,"Competition peptide (% NSPr-FAM) (membrane proteins; Experiment #1, equimolar NSPr-FAM and variant): 10%; Competition NSPr-FAM (±10%) (membrane proteins; Experiment #2): 10%; Solubility [2]: 1; Reconstitution Efficiency (/5) [3, 4]: 2 /5; Reconstitution Efficiency (/5) ([3]; Experiment #2, score 1 to 5): 2 /5"
"DWLKAFYDKVAEKLKEAAPDWFKAFYDKVAEKFKEAF [NSP, DWLKAFYDKVAEKLKEAA P DWFKAFYDKVAEKFKEAF]",3 /5,–
"FAAKFKEAVKDYFAKFWDPAAEKLAEAVADYFAALWD [3 SB Disruption H2, FAAKFKEAVKDYFAKFWD P AAEKLAEAVADYFAALWD]",5,–
"FAEAFKEAVKDYFAAFWDPAAEKLKEAVKDYFAKLWD [2 SB Disruption, FAEAFKEAVKDYFAAFWD P AAEKLKEAVKDYFAKLWD]",5,–
"FAEAFKEAVKDYFAKFWDPAAEKLKEAVKDYFAKLWD [1 SB Disruption, FAEAFKEAVKDYFAKFWD P AAEKLKEAVKDYFAKLWD]",5,–
FAEKFKEAVKDYFAKFWD P AAEKLKEAVKDYFAKLWD-pyrenebutyric acid [NSPr-pyrene],5,"Solubility [2]: 5; Reconstitution Efficiency (/5) [3, 4]: 4 /5; Reconstitution Efficiency (/5) ([3]; Experiment #2, score 1 to 5): 4 /5"
"FAEKFKEAVKDYFAKFWDGAAEKLKEAVKDYFAKLWD [NSPr-G, FAEKFKEAVKDYFAKFWD G AAEKLKEAVKDYFAKLWD]",–,Solubility [2]: 5
"FAEKFKEAVKDYFAKFWDPAAEKLKEAVKDYFAKLW [NSPr-36, FAEKFKEAVKDYFAKFWD P AAEKLKEAVKDYFAKLW]",3 /5,–
"FAEKFKEAVKPYFAKFWDPAAEKLKEAVKPYFAKLWD [NSPr-3P, FAEKFKEAVKPYFAKFWD P AAEKLKEAVKPYFAKLWD]",5,Solubility [2]: 5
"FVEKFKEVAKDYFVKFWDPVVEKLKEVAKDYFVKLWD [Ala/Val Switch, FVEKFKEVAKDYFVKFWD P VVEKLKEVAKDYFVKLWD]",5,–
Fam-FAEKFKEAVKDYFAKFWD P AAEKLKEAVKDYFAKLWD [NSPr-FAM],–,"Reconstitution Efficiency (/5) [3, 4]: 5; Reconstitution Efficiency (/5) ([3]; Experiment #2, score 1 to 5): 5"

# Continued, in another order:
Solubility (/5) [2],Compound,also measured
5,"CC(C)C[C@H](NC(=O)[C@H](CCCCN)NC(=O)[C@H](C)NC(=O)[C@H](Cc1ccccc1)NC(=O)[C@H](Cc1ccc(O)cc1)NC(=O)[C@H](CC(=O)O)NC(=O)[C@H](CCCCN)NC(=O)[C@@H](NC(=O)[C@H](C)NC(=O)[C@H](CCC(=O)O)NC(=O)[C@H](CCCCN)NC(=O)[C@H](CC(C)C)NC(=O)[C@H](CCCCN)NC(=O)[C@H](CCC(=O)O)NC(=O)[C@H](C)NC(=O)[C@H](C)NC(=O)[C@@H]1CCCN1C(=O)[C@H](CC(=O)O)NC(=O)[C@H](Cc1c[nH]c2ccccc12)NC(=O)[C@H](Cc1ccccc1)NC(=O)[C@H](CCCCN)NC(=O)[C@H](C)NC(=O)[C@H](Cc1ccccc1)NC(=O)[C@H](Cc1ccc(O)cc1)NC(=O)[C@H](CC(=O)O)NC(=O)[C@H](CCCCN)NC(=O)[C@@H](NC(=O)[C@H](C)NC(=O)[C@H](CCC(=O)O)NC(=O)[C@H](CCCCN)NC(=O)[C@H](Cc1ccccc1)NC(=O)[C@H](CCCCN)NC(=O)[C@H](CCC(=O)O)NC(=O)[C@H](C)NC(=O)[C@H](Cc1ccccc1)NC(=O)[C@@H](N)CS)C(C)C)C(C)C)C(=O)N[C@@H](Cc1c[nH]c2ccccc12)C(=O)N[C@@H](CC(=O)O)C(=O)O [NSPr-C, C FAEKFKEAVKDYFAKFWD P AAEKLKEAVKDYFAKLWD]",Solubility [2]: 5
4 /5,"FADKFKDAVKEYFAKFWEPAADKLKDAVKEYFAKLWE [Neg Switch, FADKFKDAVKEYFAKFWE P AADKLKDAVKEYFAKLWE]",–
4 /5,"FAEKFKEAVKDQFAKFWDPAAEKLKEAVKDQFAKLWD [Tyr/Gln Switch, FAEKFKEAVKDQFAKFWD P AAEKLKEAVKDQFAKLWD]",–
4 /5,"FAEKFKEAVKDYFAKFWDGAAEKLKEAVKDYFAKLWD [Pro/Gly Switch, FAEKFKEAVKDYFAKFWD G AAEKLKEAVKDYFAKLWD]",–
4 /5,"FAEKFKEAVKDYFAKFWDPAAEKFKEAVKDYFAKLFD [Peptide 4F-3F, FAEKFKEAVKDYFAKFWD P AAEKFKEAVKDYFAKLFD]",–
4 /5,"FAEKFKEAVKDYFAKFWDPAAEKLKEAVKDYFAKFWD [Peptide 4F-2F, FAEKFKEAVKDYFAKFWD P AAEKLKEAVKDYFAKFWD]",–
4 /5,"FAEKFKEAVKDYFAKFWDPFAEKFKEAVKDYFAKFWD [Peptide 4F-4F, FAEKFKEAVKDYFAKFWD P FAEKFKEAVKDYFAKFWD]",–
5,"FAEKFKEAVKDYFAKLWDPAAEKLKEAVKDYFAKLWD [Peptide 3F-1F, FAEKFKEAVKDYFAKLWD P AAEKLKEAVKDYFAKLWD]",–
4 /5,"FAEKLKEAVKDYFAKLWDPFAEKLKEAVKDYFAKLWD [Peptide 2F-2F, FAEKLKEAVKDYFAKLWD P FAEKLKEAVKDYFAKLWD]",–
5,"FAEKLKEAVKDYLAKFWDPAAEKLKEAVKDYFAKLWD [Peptide 2F-1F, FAEKLKEAVKDYLAKFWD P AAEKLKEAVKDYFAKLWD]",–
5,"FAERFREAVRDYFARFWDPAAERLREAVRDYFARLWD [Pos Switch, FAERFREAVRDYFARFWD P AAERLREAVRDYFARLWD]",–
4 /5,"WAEKFKEAVKDYWAKFWDPAAEKLKEAVKDYWAKLWD [Phe/Trp Switch, WAEKFKEAVKDYWAKFWD P AAEKLKEAVKDYWAKLWD]",–
4 /5,"YAEKFKEAVKDYFAKFYDPAAEKLKEAVKDYFAKLWD [Phe/Tyr Switch, YAEKFKEAVKDYFAKFYD P AAEKLKEAVKDYFAKLWD]",–
